Three compounds from article PMC9122897, “SHR1032, a novel STING agonist, stimulates anti-tumor immunity and directly induces AML apoptosis” (Scientific Reports, 2022) can be followed below.

The subject of one experiment is THP1-STING-R232 cells. Put plainly: CellTiter-Glo cell growth. The format is cell-based, human. The method, then: (§1) (a–d) AML cells were treated with STING agonists and standard of care cytarabine, and cell viability was measured by CellTiter Glo in (a) THP1-STING-R232, (b) THP1-STING-KO, (c) MV-4-11 and (d) MOLM-16. (e) MV-4-11, MOLM-16 and THP1-STING-KO cells were stimulated with 1 µM of SHR1032 for the indicated time points. The amount of pTBK1, total TBK1, pSTING, total STING and α-tubulin was measured by Western blot. pSTING phosphorylated STING. THP1 reporter cells were treated for 24 h with a total of 100 k cells and 150 ul media in each well a 96-well plate. Following the incubation, 20 µl of supernatant was transferred to an opaque 96 well ½ area plate and incubated for 30 s with 50 µl of QUANTI-Luc substrate (InvivoGen) per manufacturer’s instructions. Luminescence signal was measured using Tecan infinite M1000. EC50 values were calculated using non-linear regression analysis of GraphPad Prism. Cell growth was monitored by CellTiter-Glo Luminescent Cell Viability Assay (Promega) per manufacture’s protocol. GI50 values were calculated using non-linear regression analysis of GraphPad Prism. Cell lysates for western blotting were made in RIPA buffer (Sigma) with Halt Protease and Phosphatase Inhibitors (Thermo Scientific). Antibodies against pSTING, TBK1, pTBK1 and tubulin were purchased from Cell Signaling Technologies, and anti-STING was purchased from Protein Tech.
In general terms: ATP-based viability assays read luminescence as a measure of living cells.

The test system of the next experiment is THP1-STING-KO cells. In words: CellTiter-Glo cell growth. It counts as cell-based, human. The method, then: as §1
The subject of experiment [1] is MC38 mouse syngeneic colorectal adenocarcinoma. Put plainly: MC38 syngeneic tumor model. As to conditions: 50 µg intratumorally on day 1, 5, 8; after 21 days since the first dosing. It counts as in vivo, C57BL/6 mouse. The method, then: Figure 3 Robust cytokine induction and antitumor effects in vivo. (a,b) C57BL/6 mice were inoculated with mouse MC38 colon cancer cells in the left flank. When tumor volumes were 100 mm^3, they received intratumoral (IT) dose of 100 µg of SHR1032 on day 1, 5, 8 and 12 or IT dose of 50 µg ADU-S100 on day 1, 5, and 8, or vehicle, respectively. (a) Tumor volume was measured at different time points. Results are shown as mean tumor volume ± sem. (n = 8 animals per group). (b) Mouse bodyweight was measured at different time points. (c–f) C57BL/6 mice were inoculated with mouse MC38 colon cancer cells in the left flank. When tumor volumes were 100 mm^3, they received one IT dose of 100 µg of SHR1032 or 50 µg ADU-S100, or vehicle. (c) IFNβ, (d) IL-6 and (e) TNFα from both tumor and plasma was measured by ELISA 4 h after. (f) SHR1032 compound concentration in tumors were measured.
Human and Cynomolgous PBMC’s were thawed and spun down in Lymphocyte media (ZENBIO) and resuspended in media to 1.5 x 10^6 cells/ml density. Mouse RAW 264.7 cells were detached from the flask and resuspended in media to 1.5 x 10^6 cells/ml density. Then, 100 µl of media containing the cells was added to each well of a 96-well plate containing compound in 50 µl of media. Plates were incubated for 5 h at 37 °C and supernatant was collected for ELISA analysis. Human and monkey IFN-β protein concentration was measured using human IFN-β Quantikine ELISA Kits (R&D Systems) per manufacture’s protocol. Mouse IFN-β was measured using mouse IFN-β Quantikine ELISA Kits (R&D Systems) per manufacture’s protocol. Mouse TNFα, IFN-β and IL-6 in the tumor lysates and plasma was measured by Quantikine ELISA Kits (R&D Systems) per manufacture’s protocol.
Female C57BL/6 mice, aged between 8 and 10 weeks old, were purchased from Charles River Lab. MC38 mouse colorectal cancer cells were resuspended as single cell solution in PBS at a concentration of 5 × 10^6 cells/ml. One hundred µl of cell suspension were implanted in the right flank of mice subcutaneously. Tumor size was measured by a caliper in three dimensions and its volume was then calculated according to the following formula: Tumor Volume (mm^3) = l * w * h * 0.5236, where l = length, w = width and h = height in mm for a tumor. When the average tumor volume reached around 100 mm^3, the mice were randomly assigned into three groups (n = 8) and each group of mice received one regimen. This day was assigned as day 0 for the study. […] Tumor volume and body weight were measured 3 times per week throughout the study. […] Cytokines and SHR1032 concentration in the plasma and tumor tissues were analyzed. […]

A further experiment deals with T1, human STING (Homo sapiens, UniProt Q86WV6).
T1 construct: made in house; host or cells: E. coli
T1 sequence (Q86WV6 155-341 limits assumed): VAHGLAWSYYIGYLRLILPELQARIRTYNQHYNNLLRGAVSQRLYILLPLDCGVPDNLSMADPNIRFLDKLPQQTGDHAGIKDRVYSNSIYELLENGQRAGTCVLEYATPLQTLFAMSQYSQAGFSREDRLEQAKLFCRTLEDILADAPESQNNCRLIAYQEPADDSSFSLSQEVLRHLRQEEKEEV
Put plainly: Thermal shift assay. As to conditions: human STING protein 5 uM; ligand bound vs apo. It counts as binding. From the text:
(§2) We sought to develop small molecule compounds with increased STING agonist activity against human STING. GSK reported a series of non-CDN small molecules, represented by compound 1[13], with good human STING agonistic activity. Based on our molecular modeling analysis, along with the reported CDN-STING crystal structures, we designed a novel series of fused tricyclic heterocycle compounds and analyzed their binding to human STING with thermal shift assays and the potency in activation of STING signaling with a reporter cellular assay (Supplementary Table S1). Thermal shift assays measure the difference between apo STING and ligand bound STING in the inflection point at which 50% of protein is thermally unfolded (ΔTm). […] The ability of compounds to activate the IRF reporter gene in the THP1 cells was also evaluated.
The melting temperature (Tm) of human STING was determined by calculating the temperature at the inflection point of the thermal melt curve generated on a Roche LightCycler 480 using 384 plate format and 465–590 nm filter set. […] Florescence was measured while ramping the plate temperature from 20 to 95 °C and the resulting data was processed using ROCHE data analysis software. Delta Tms were calculated by subtracting the Tm of untreated protein from ligand treated samples. […]

For the next experiment, the system named is THP1 reporter cells. Put plainly: THP1 IRF luciferase reporter assay. To be noted: Homo sapiens, THP-1; IRF Lucia luciferase reporter, 24 h; read-out: THP1 reporter cell EC50. The format is cell-based.
Excerpt: as §2
THP1 reporter cells were treated for 24 h with a total of 100 k cells and 150 ul media in each well a 96-well plate. […] Luminescence signal was measured using Tecan infinite M1000. EC50 values were calculated using non-linear regression analysis of GraphPad Prism. Cell growth was monitored by CellTiter-Glo Luminescent Cell Viability Assay (Promega) per manufacture’s protocol. GI50 values were calculated using non-linear regression analysis of GraphPad Prism. […]

A further experiment relates to MOLM-16 cells. In words: CellTiter-Glo cell growth. It counts as cell-based. To be noted: Homo sapiens, MOLM16; MOLM-16, CellTiter Glo. The method, then:
as §1

Another experiment has as its system MV4-11 cells. Put plainly: CellTiter-Glo cell growth. It counts as cell-based. To be noted: Homo sapiens; MV4-11, CellTiter Glo. As for the experimental part:
as §1

Read-outs that look alike come from different tables or passages of the source.

For orientation: GI50 means the concentration at which growth is held to half of that of the control. Read a high GI50 as less potent growth inhibition. In the experiment on THP1-STING-R232 cells, `Nc1ncnc2c1ncn2[C@@H]1O[C@@H]2COP(=O)([S-])O[C@@H]3[C@H](O)[C@@H](COP([O-])(=S)O[C@H]2[C@H]1O)O[C@H]3n1cnc2c(N)ncnc21.[Na+].[Na+]` (some centres unmarked) [ADU-S100, reference compound] came in with a concentration for 50% growth inhibition (GI50) of 9440 nM. Besides, the cell growth inhibition result in the experiment on THP1-STING-KO cells is “not detectable”. Moreover, the tumor response entry in experiment [1] was “complete tumor regression”.

What is called EC50 is the concentration that produces a half-maximal response. For `C=CC[C@H]1COc2cc(C(N)=O)cc3nc(NC(=O)c4cc(C)nn4CC)n1c23` [Compound 2], the “Thermal shift ∆Tm” value at human STING was 5.7 °C. In addition, in the experiment with THP1 reporter cells, the EC50 turned out to be 1600 nM.

For `Nc1ccn([C@@H]2O[C@H](CO)[C@@H](O)[C@@H]2O)c(=O)n1` [cytarabine, reference compound], the GI50 was determined as 100 nM in the experiment on THP1-STING-R232 cells (Homo sapiens), 450 nM with MOLM-16 cells and 340 nM in the experiment on MV4-11 cells.
